Percent of control binding data for 4 compounds are collected here from PMC7026418, “The kinase polypharmacology landscape of clinical PARP inhibitors” (Scientific Reports, 2020).

Molecules are shown by their SMILES. Like-named read-outs stand apart in the source and are kept apart here.

Holding throughout (test): biochemical
What all share (parameters): DiscoveRx KINOMEscan active site-directed competition binding; percent of control kinase bound to immobilised ligand

Test [1] addresses T1, ABL1(F317L)-phosphorylated (Homo sapiens, UniProt P00519, F317L).
T1 construct: phosphorylated

In test [2] the target is T2, ABL1(H396P)-phosphorylated (Homo sapiens, UniProt P00519, H396P).
T2 construct: phosphorylated

Test [3] has as its target T3, ABL1-nonphosphorylated (Homo sapiens, UniProt P00519).
T3 construct: nonphosphorylated

Test [4] deals with ABL2 (Homo sapiens, UniProt P42684).
Test [5] addresses CLK4 (Homo sapiens, UniProt Q9HAZ1).
The target of test [6] is DYRK1A (Homo sapiens, UniProt Q13627).
Test [7] deals with T4, LOK (Homo sapiens, UniProt O94804).
T4 construct: gene STK10

Test [8] has as its target LRRK2 (Homo sapiens, UniProt Q5S007).
For test [9], the target named is MAPKAPK2 (Homo sapiens, UniProt P49137).
Test [10] deals with MAST1 (Homo sapiens, UniProt Q9Y2H9).
Test [11] deals with T5, SgK110 (Homo sapiens, UniProt P0C264).
T5 construct: gene SBK3
T5 sequence (P0C264 1-359): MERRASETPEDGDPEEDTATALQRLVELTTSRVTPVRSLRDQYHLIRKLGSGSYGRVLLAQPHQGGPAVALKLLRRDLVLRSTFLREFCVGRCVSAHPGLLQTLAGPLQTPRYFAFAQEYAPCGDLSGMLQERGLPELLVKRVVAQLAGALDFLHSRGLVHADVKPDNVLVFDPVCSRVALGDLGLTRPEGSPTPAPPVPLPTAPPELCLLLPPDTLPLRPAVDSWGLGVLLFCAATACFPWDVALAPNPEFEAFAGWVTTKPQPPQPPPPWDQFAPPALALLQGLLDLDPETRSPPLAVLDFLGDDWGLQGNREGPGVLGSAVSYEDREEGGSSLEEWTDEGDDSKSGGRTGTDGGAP

Test [12] deals with T6, TNK1 (Homo sapiens, UniProt Q13470).
T6 sequence (Q13470 1-666): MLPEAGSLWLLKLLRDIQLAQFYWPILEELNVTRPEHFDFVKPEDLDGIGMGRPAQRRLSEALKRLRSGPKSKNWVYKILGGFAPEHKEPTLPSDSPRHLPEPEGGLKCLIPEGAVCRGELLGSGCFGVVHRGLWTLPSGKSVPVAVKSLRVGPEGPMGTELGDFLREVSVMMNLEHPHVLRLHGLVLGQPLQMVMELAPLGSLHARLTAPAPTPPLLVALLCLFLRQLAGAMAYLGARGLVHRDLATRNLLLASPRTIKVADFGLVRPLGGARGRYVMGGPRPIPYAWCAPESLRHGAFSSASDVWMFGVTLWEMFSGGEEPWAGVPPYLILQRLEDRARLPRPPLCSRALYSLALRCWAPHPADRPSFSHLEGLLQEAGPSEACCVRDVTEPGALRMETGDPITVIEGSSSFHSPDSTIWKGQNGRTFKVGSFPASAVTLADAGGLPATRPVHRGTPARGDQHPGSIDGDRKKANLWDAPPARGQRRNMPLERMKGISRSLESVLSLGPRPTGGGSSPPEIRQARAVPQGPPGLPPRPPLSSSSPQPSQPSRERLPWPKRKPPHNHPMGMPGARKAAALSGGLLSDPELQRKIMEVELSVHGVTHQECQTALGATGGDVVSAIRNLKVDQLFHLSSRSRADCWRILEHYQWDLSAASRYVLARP

In test [13] the target is TNK2 (Homo sapiens, UniProt Q07912).
Test [14] concerns the target T7, p38-delta (Homo sapiens, UniProt O15264).
T7 construct: gene MAPK13
T7 sequence (O15264 1-365): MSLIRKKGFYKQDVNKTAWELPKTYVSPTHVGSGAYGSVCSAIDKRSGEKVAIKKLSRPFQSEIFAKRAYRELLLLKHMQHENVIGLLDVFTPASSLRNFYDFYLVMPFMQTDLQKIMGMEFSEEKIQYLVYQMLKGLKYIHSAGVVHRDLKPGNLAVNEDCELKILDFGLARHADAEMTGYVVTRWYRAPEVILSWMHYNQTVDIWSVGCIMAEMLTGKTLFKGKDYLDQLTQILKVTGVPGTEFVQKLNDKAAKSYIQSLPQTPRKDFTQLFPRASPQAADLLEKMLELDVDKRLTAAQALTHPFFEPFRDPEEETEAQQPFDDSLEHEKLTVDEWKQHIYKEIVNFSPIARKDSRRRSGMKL

[15] abbreviates: read-out: Niraparib (MK-4827) / %Ctrl @ 10000nM.
Setting [16] is: read-out: Talazoparib (BMN 673) / %Ctrl @ 10000nM.
Setting [17] is: read-out: Rucaparib / %Ctrl @ 10000nM, binding competition, % of control.
[18] abbreviates: read-out: Olaparib / %Ctrl @ 10000nM.

TNK2, sequence (Q07912 whole entry): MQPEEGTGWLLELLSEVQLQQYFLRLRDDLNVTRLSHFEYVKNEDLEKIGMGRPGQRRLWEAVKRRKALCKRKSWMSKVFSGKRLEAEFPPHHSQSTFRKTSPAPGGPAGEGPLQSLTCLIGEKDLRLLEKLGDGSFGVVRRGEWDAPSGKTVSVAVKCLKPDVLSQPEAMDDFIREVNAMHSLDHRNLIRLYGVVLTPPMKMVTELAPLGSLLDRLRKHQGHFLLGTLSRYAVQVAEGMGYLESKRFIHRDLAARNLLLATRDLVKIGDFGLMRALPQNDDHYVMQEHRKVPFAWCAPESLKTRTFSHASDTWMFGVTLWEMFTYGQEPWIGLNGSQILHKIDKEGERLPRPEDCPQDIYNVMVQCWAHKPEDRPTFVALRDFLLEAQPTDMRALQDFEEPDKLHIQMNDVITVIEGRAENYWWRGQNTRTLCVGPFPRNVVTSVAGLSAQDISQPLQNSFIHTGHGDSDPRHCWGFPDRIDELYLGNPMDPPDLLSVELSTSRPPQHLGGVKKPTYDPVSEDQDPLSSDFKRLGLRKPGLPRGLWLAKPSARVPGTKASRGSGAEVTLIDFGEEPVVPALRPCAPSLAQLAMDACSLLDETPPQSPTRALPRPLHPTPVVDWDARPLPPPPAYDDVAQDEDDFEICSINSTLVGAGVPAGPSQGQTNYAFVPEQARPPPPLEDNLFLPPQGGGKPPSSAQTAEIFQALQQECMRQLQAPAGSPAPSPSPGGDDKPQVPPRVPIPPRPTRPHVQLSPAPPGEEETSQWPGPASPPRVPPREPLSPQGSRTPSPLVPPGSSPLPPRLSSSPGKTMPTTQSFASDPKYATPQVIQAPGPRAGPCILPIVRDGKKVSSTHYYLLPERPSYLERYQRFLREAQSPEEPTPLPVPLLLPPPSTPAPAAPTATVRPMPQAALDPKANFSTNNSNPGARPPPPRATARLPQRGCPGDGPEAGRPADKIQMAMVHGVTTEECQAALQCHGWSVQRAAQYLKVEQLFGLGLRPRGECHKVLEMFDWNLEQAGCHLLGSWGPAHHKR
T4 sequence (O94804 whole entry): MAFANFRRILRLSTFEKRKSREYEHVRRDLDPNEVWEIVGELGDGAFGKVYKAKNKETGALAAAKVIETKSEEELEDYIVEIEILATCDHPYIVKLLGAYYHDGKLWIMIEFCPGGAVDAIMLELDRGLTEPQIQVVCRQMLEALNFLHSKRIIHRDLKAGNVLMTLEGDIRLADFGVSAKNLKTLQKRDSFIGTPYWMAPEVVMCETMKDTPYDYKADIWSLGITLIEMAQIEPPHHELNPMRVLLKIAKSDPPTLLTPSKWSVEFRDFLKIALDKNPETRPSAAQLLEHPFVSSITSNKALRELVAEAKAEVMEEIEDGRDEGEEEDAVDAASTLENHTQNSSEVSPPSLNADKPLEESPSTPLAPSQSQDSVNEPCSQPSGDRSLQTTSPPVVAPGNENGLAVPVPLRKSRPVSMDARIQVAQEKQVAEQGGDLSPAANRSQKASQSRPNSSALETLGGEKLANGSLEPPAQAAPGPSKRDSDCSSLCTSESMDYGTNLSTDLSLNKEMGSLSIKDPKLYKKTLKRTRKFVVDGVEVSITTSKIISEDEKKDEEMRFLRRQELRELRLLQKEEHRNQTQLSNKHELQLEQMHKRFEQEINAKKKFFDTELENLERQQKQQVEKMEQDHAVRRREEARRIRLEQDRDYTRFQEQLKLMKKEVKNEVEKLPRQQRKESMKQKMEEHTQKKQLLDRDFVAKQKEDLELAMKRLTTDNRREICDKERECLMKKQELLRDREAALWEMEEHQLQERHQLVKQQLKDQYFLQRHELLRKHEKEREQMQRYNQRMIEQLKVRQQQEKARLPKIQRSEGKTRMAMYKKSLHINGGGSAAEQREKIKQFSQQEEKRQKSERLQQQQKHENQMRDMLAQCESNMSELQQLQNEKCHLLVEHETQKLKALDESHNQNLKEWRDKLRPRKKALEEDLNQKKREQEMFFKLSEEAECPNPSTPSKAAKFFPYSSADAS
ABL2, sequence (P42684 whole entry): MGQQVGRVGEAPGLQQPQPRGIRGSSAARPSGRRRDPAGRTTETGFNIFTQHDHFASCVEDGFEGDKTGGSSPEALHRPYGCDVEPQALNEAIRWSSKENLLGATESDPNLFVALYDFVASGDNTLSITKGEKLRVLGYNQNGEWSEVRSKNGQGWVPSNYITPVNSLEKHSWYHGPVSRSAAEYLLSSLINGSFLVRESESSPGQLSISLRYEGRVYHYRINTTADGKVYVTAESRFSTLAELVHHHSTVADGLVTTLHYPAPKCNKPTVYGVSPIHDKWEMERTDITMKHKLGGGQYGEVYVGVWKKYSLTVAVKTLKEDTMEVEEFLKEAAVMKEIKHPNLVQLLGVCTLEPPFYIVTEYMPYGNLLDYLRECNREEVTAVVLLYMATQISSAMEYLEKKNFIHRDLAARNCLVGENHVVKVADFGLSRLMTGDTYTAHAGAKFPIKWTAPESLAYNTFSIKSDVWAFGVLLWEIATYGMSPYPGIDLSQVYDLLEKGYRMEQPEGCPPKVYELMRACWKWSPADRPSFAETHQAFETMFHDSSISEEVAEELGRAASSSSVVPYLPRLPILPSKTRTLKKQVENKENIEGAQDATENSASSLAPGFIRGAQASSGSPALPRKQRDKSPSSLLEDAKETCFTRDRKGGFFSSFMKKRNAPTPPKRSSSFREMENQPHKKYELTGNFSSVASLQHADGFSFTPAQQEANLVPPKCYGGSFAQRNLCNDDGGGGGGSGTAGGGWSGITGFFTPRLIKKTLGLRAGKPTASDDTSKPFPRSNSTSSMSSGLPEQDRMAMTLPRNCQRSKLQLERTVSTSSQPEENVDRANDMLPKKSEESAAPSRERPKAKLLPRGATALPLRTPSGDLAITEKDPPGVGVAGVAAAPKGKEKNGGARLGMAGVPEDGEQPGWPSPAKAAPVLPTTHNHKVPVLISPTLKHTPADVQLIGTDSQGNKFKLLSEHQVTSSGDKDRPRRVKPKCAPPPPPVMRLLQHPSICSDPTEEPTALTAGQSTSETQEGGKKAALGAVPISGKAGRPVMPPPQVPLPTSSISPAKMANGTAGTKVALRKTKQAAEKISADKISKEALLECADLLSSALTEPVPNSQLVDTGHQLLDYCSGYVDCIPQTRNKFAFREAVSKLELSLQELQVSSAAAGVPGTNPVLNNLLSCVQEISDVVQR
CLK4, sequence (Q9HAZ1 whole entry): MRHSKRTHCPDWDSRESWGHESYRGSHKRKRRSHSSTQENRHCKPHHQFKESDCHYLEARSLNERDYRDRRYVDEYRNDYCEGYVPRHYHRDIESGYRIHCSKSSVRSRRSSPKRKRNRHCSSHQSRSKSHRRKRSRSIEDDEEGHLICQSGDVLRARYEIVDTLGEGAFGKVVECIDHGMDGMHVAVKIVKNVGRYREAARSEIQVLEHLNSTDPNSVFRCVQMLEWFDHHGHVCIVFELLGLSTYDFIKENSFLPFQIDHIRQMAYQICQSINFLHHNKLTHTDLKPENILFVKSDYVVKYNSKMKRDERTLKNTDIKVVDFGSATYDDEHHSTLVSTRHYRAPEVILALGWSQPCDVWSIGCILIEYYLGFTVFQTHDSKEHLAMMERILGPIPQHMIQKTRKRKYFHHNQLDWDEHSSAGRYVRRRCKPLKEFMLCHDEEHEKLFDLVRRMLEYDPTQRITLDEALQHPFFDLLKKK
MAPKAPK2, sequence (P49137 whole entry): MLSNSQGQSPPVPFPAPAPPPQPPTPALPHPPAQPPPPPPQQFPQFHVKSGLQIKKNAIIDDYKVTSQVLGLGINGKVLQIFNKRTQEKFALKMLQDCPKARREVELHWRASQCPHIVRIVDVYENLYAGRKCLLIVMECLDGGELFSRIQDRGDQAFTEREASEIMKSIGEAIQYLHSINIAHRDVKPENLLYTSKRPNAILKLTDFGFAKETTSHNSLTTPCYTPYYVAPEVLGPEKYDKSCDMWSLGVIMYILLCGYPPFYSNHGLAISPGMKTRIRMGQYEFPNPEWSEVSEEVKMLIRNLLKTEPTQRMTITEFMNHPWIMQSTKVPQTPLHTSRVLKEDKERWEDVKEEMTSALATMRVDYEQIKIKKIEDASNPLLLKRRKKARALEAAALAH

On to `NC(=O)c1cccc2cn(-c3ccc([C@@H]4CCCNC4)cc3)nc12` [Niraparib], for which the percent of control binding at 10 µM was determined as 100% in test [1] (setting [15]); 58% in test [2] (setting [15]); 94% in test [3] (setting [15]); 85% in [4] (setting [15]); 52% in test [5] (setting [15]); 0.2% in test [6] (setting [15]). For the same compound, the percent of control binding at 10 µM came out at 86% in [7] (setting [15]); 96% in [8] (setting [15]); 80% in test [9] (setting [15]); 91% in test [10] (setting [15]); 84% in test [11] (setting [15]); 56% in [12] (setting [15]). The percent of control binding at 10 µM in test [13] (setting [15]) is 91%; in test [14] (setting [15]) it was 82%.

With `Cn1ncnc1[C@H]1c2n[nH]c(=O)c3cc(F)cc(c23)N[C@@H]1c1ccc(F)cc1` [Talazoparib], the percent of control binding at 10 µM amounted to 50% in test [1] (setting [16]); 92% in test [2] (setting [16]); 100% in test [3] (setting [16]); 93% in [4] (setting [16]); 100% in test [5] (setting [16]); 94% in test [6] (setting [16]). Also, the percent of control binding at 10 µM in test [7] (setting [16]) stood at 100%; in test [8] (setting [16]), 100%; in [9] (setting [16]), 100%; in test [10] (setting [16]) it was 100%; in test [11] (setting [16]) it was 100%; in test [12] (setting [16]) it was 93%. Besides, the percent of control binding at 10 µM in test [13] (setting [16]) turned out to be 97%; in test [14] (setting [16]), 98%.

On to `CNCc1ccc(-c2[nH]c3cc(F)cc4c3c2CCNC4=O)cc1` [Rucaparib], for which the percent of control binding at 10 µM in [1] (setting [17]) stood at 74%; in test [2] (setting [17]), 80%; in [3] (setting [17]), 82%; in test [4] (setting [17]), 100%; in [5] (setting [17]) it was 40%; in test [6] (setting [17]) it was 0.4%. The percent of control binding at 10 µM in [7] (setting [17]) came to 100%; in [8] (setting [17]) it was 78%; in test [9] (setting [17]), 100%; in test [10] (setting [17]), 79%; in test [11] (setting [17]), 63%; in test [12] (setting [17]), 91%. Besides, the percent of control binding at 10 µM in test [13] (setting [17]) and in test [14] (setting [17]) was 100% throughout.

As for `O=C(c1cc(Cc2n[nH]c(=O)c3ccccc23)ccc1F)N1CCN(C(=O)C2CC2)CC1` [Olaparib], the percent of control binding at 10 µM in test [1] (setting [18]) worked out at 95%; in test [2] (setting [18]) it was 83%; in test [3] (setting [18]), 87%; in test [4] (setting [18]) it was 100%; in test [5] (setting [18]), 92%; in test [6] (setting [18]), 95%. Moreover, the percent of control binding at 10 µM in [7] (setting [18]) is 96%; in test [8] (setting [18]), 100%; in [9] (setting [18]), 84%; in test [10] (setting [18]), 86%; in [11] (setting [18]), 63%; in [12] (setting [18]), 95%. The percent of control binding at 10 µM in [13] (setting [18]) was 95%; in [14] (setting [18]) it was 84%.
